# Reference: patent publication US8183246B2, “Acyclically substituted furopyrimidine derivatives and use thereof” (Bayer Intellectual Property GmbH, priority 2005, dated 2012)
# Molecular target: T1, Prostacyclin Receptors (IP Receptors) of Human Thrombocyte Membranes (Homo sapiens, UniProt P43119)
# T1 construct: Thrombocyte membranes are obtained by centrifuging 50 ml human blood; tissue Maco Pharma, Langen (buffy coats); host or cells: human thrombocyte (platelet) membranes from human blood
# Assay: Binding to prostacyclin receptors (IP receptors) of human thrombocyte membranes (3H-Iloprost displacement)
# Settings: 3 nM 3H-Iloprost, 300-1000 μg/ml human thrombocyte membranes, 60 min, room temperature
# Description: B-1. Studies of Binding to Prostacyclin Receptors (IP Receptors) of Human Thrombocyte Membranes
# Thrombocyte membranes are obtained by centrifuging 50 ml human blood (Buffy coats with CDP Stabilizer, from Maco Pharma, Langen) for 20 min at 160×g. Remove the supernatant (platelet-rich plasma, PRP) and then centrifuge again at 2000×g for 10 min at room temperature. Resuspend the sediment in 50 mM tris-(hydroxymethyl)-aminomethane, which has been adjusted to a pH of 7.4 with 1 N hydrochloric acid, and store at −20° C. overnight. On the next day, centrifuge the suspension at 80000×g and 4° C. for 30 min. Discard the supernatant. Resuspend the sediment in 50 mM tris-(hydroxymethyl)-aminomethane/hydrochloric acid, 0.25 mM ethylene diamine tetraacetic acid (EDTA), pH 7.4, and then centrifuge once again at 80000×g and 4° C. for 30 min. Take up the membrane sediment in binding buffer (50 mM tris-(hydroxymethyl)-aminomethane/hydrochloric acid, 5 mM magnesium chloride, pH 7.4) and store at −70° C. until the binding test.
# For the binding test, incubate 3 nM ^3H-Iloprost (592 GBq/mmol, from AmershamBioscience) for 60 min with 300-1000 μg/ml human thrombocyte membranes per charge (max. 0.2 ml) in the presence of the test substances at room temperature. After stopping, add cold binding buffer to the membranes and wash with 0.1% bovine serum albumin. After adding Ultima Gold Scintillator, quantify the radioactivity bound to the membranes using a scintillation counter. The nonspecific binding is defined as radioactivity in the presence of 1 μM Iloprost (from Cayman Chemical, Ann Arbor) and is as a rule <25% of the bound total radioactivity. The binding data (IC50 values) are determined using the program GraphPad Prism Version 3.02.
# T1 sequence (P43119 whole entry): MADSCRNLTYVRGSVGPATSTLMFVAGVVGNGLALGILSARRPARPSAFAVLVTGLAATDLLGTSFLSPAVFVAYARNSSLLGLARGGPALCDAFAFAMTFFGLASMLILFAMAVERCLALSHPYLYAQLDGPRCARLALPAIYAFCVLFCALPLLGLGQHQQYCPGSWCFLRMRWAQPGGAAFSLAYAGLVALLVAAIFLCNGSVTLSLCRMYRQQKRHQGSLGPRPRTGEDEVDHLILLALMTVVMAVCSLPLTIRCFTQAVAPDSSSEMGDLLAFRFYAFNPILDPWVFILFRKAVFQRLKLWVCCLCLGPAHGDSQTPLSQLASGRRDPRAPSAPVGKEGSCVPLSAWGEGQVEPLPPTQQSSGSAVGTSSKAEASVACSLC
row,SMILES,IC50 [nM]
1,"COC(=O)CCCCC(C)Oc1ncnc2oc(-c3ccccc3)c(-c3ccc(OC)cc3)c12 (racemic) [Example 63, (+/−)-6-{[5-(4-Methoxyphenyl)-6-phenylfuro[2,3-d]pyrimidin-4-yl]oxy}heptanoic acid methyl ester]",37
2,"CCc1ccc(-c2c(-c3ccccc3F)oc3ncnc(OC[C@H](C)COCC(=O)O)c23)cc1 [Example 154, (−)-{[(2R)-3-{[5-(4-Ethylphenyl)-6-(2-fluorophenyl)furo[2,3-d]pyrimidin-4-yl]oxy}-2-methyl-propyl]oxy}acetic acid]",3.8
3,"COc1ccc(-c2c(-c3ccccc3)oc3ncnc(NCCCOCCc4nnn[nH]4)c23)cc1 [Example 15, 5-(4-Methoxyphenyl)-6-phenyl-N-{3-[2-(1H-tetrazol-5-yl)ethoxy]propyl}furo[2,3-d]pyrimidine-4-amine]",82
4,"CCc1ccc(-c2c(-c3ccccc3)oc3ncnc(O[C@@H](C)CN(C)CCCC(=O)O)c23)cc1 [Example 140, (+)-4-{[(2S)-2-{[5-(4-Ethylphenyl)-6-phenylfuro[2,3-d]pyrimidin-4-yl]oxy}propyl](methyl)-amino}butyric acid]",52
5,"COc1ccc(-c2c(-c3ccccc3C)oc3ncnc(NCCCCCC(=O)O)c23)cc1 [Example 122, 6-{[5-(4-Methoxyphenyl)-6-(2-methylphenyl)furo[2,3-d]pyrimidin-4-yl]amino}hexanoic acid]",48
6,"COc1ccc(-c2c(-c3ccccc3)oc3ncnc(NCCCCCc4nnn[nH]4)c23)cc1 [Example 4, 5-(4-Methoxyphenyl)-6-phenyl-N-[5-(1H-tetrazol-5-yl)pentyl]furo[2,3-d]pyrimidine-4-amine]",34
7,"COC(=O)CCCCCN(C)c1ncnc2oc(-c3ccccc3)c(-c3ccc(OC)cc3)c12 [Example 45, 6-{[5-(4-Methoxyphenyl)-6-phenylfuro[2,3-d]pyrimidin-4-yl](methyl)amino}hexanoic acid methyl ester]",895
8,"COc1ccc(-c2c(-c3ccccc3)oc3ncnc(O[C@H](C)CCCCC(=O)O)c23)cc1 (single isomer, unassigned; enantiomer 2) [Example 69, (−)-6-{[5-(4-Methoxyphenyl)-6-phenylfuro[2,3-d]pyrimidin-4-yl]oxy}heptanoic acid (Enantiomer 2)]",9
9,C=Cc1ccc(-c2c(-c3ccccc3)oc3ncnc(NCCCCCC(=O)O)c23)cc1 [Example 33],64
10,"COc1ccc(-c2c(-c3ccccc3)oc3ncnc(OCC(C)(C)COCC(=O)O)c23)cc1 [Example 95, (3-{[5-(4-Methoxyphenyl)-6-phenylfuro[2,3-d]pyrimidin-4-yl]oxy}-2,2-dimethylpropoxy)acetic acid]",10
11,"COc1ccc(-c2c(-c3ccccc3)oc3ncnc(OC(C)CN(C)CCCC(=O)O)c23)cc1 (racemic) [Example 92, (+/−)-4-[(2-{[5-(4-Methoxyphenyl)-6-phenylfuro[2,3-d]pyrimidin-4-yl]oxy}propyl)(methyl)-amino]butanoic acid]",219
12,"COc1ccc(-c2c(-c3ccccc3)oc3ncnc(OC(C)CC(C)OCC(=O)O)c23)cc1 (single isomer, unassigned; enantiomer 2) [Example 146, (3-{[5-(4-Methoxyphenyl)-6-phenylfuro[2,3-d]pyrimidin-4-yl]oxy}-1-methylbutoxy)acetic acid (Enantiomer 2)]",7
13,"COc1ccc(-c2c(-c3ccccc3F)oc3ncnc(O[C@@H](C)CN(C)CCCC(=O)O)c23)cc1 [Example 138, (+)-4-{[(2S)-2-{[6-(2-Fluorophenyl)-5-(4-methoxyphenyl)furo[2,3-d]pyrimidin-4-yl]oxy}propyl]-(methyl)amino}butyric acid]",53

# More lines, in order of falling IC50, values ahead:
row,IC50 [nM],SMILES
1,470,"CCc1ccc(-c2c(-c3ccccc3)oc3ncnc(O[C@@H](C)COCCC(=O)O)c23)cc1 [Example 85, (+)-3-{[2-{[5-(4-Ethylphenyl)-6-phenylfuro[2,3-d]pyrimidin-4-yl]oxy}propyl]oxy}propionic acid]"
2,217,CCc1ccc(-c2c(-c3ccccc3)oc3ncnc(NCCCCCC(=O)OC)c23)cc1 [Example 36]
3,206,"COc1ccc(-c2c(-c3ccccc3)oc3ncnc(NCCCCCC(=O)O)c23)cc1 [Example 1, 6-{[5-(4-Methoxyphenyl)-6-phenylfuro[2,3-d]pyrimidin-4-yl]amino}hexanoic acid]"
4,84,"COc1ccc(-c2c(-c3ccccc3Cl)oc3ncnc(NCCCCCC(=O)O)c23)cc1 [Example 117, 6-{[6-(2-Chlorophenyl)-5-(4-methoxyphenyl)furo[2,3-d]pyrimidin-4-yl]amino}hexanoic acid]"
5,51,"COC(=O)CCCCCNc1ncnc2oc(-c3ccccc3F)c(-c3ccc(OC)cc3)c12 [Example 113, 6-{[6-(2-Fluorophenyl)-5-(4-methoxyphenyl)furo[2,3-d]pyrimidin-4-yl]amino}hexanoic acid methyl ester]"
6,49,"COc1ccc(-c2c(-c3ccccc3)oc3ncnc(OCCCCCc4nnn[nH]4)c23)cc1 [Example 14, 5-(4-Methoxyphenyl)-6-phenyl-4-{[5-(1H-tetrazol-5-yl)pentyl]oxy}-furo[2,3-d]pyrimidine]"
7,33,"COc1ccc(-c2c(-c3ccccc3)oc3ncnc(OCC(C)COCC(=O)O)c23)cc1 (single isomer, unassigned; enantiomer 1) [Example 128, (+)-(3-{[5-(4-Methoxyphenyl)-6-phenylfuro[2,3-d]pyrimidin-4-yl]oxy}-2-methylpropoxy)acetic acid (Enantiomer 1)]"
8,22,"CCc1ccc(-c2c(-c3ccccc3)oc3ncnc(O[C@H](C)CCOCC(=O)O)c23)cc1 [Example 80, (−)-{[3-{[5-(4-Ethylphenyl)-6-phenylfuro[2,3-d]pyrimidin-4-yl]oxy}butyl]oxy}acetic acid]"
9,20,"COc1ccc(-c2c(-c3ccccc3)oc3ncnc(OC[C@H](C)OCCC(=O)O)c23)cc1 [Example 83, (+)-3-{[(2S)-2-{[5-(4-Methoxyphenyl)-6-phenylfuro[2,3-d]pyrimidin-4-yl]oxy}-1-methylethoxy]-oxy}propionic acid]"
10,13,"CCc1ccc(-c2c(-c3ccccc3F)oc3ncnc(OC[C@H](C)OCCC(=O)O)c23)cc1 [Example 156, 3-[(1S)-2-{[5-(4-Ethylphenyl)-6-(2-fluorophenyl)furo[2,3-d]pyrimidin-4-yl]oxy}-1-methylethoxy]-propionic acid]"
11,3.7,"CCOC(=O)COC[C@@H](C)COc1ncnc2oc(-c3ccccc3F)c(-c3ccc(OC)cc3)c12 [Example 152, (−)-{[(2R)-3-{[5-(4-Methoxyphenyl)-6-(2-fluorophenyl)furo[2,3-d]pyrimidin-4-yl]oxy}-2-methyl-propyl]oxy}acetic acid ethyl ester]"
12,2.5,"CCc1ccc(-c2c(-c3ccccc3F)oc3ncnc(O[C@H](C)CCCCC(=O)O)c23)cc1 [Example 142, (−)-(6R)-6-{[5-(4-Ethylphenyl)-6-(2-fluorophenyl)furo[2,3-d]pyrimidin-4-yl]oxy}heptanoic acid]"
